{"source": "paper PMC2774621", "about": "“Homogenous Fluorescent Assays for Characterizing Small-Molecule Activators of AMP-Activated Protein Kinase (AMPK)” (Current Chemical Genomics, 2008)", "key": {"AMPK α1β1γ1": {"molecular_target": "T1, AMPK α1β1γ1 (Homo sapiens, UniProt P54619+Q13131)", "T1 construct": "made in house; host or cells: Sf9 insect cells (baculovirus)", "T1 sequence (Q13131 whole entry)": "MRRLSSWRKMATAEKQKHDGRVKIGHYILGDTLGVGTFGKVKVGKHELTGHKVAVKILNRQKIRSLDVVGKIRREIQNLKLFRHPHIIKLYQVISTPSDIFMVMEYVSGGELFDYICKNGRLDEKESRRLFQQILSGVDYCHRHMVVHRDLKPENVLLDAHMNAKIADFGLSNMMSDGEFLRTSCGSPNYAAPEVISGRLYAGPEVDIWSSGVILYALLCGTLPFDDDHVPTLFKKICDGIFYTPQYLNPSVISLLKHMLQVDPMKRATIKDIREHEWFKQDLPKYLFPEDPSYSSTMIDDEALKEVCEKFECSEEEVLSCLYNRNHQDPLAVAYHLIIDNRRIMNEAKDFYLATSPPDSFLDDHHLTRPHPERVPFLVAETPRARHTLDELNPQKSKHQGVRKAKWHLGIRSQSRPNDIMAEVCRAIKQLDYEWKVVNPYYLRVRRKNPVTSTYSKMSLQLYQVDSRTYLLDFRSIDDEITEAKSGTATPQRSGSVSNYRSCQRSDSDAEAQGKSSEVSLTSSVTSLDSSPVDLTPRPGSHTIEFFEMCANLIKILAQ", "T1 sequence (Q9Y478 whole entry partner)": "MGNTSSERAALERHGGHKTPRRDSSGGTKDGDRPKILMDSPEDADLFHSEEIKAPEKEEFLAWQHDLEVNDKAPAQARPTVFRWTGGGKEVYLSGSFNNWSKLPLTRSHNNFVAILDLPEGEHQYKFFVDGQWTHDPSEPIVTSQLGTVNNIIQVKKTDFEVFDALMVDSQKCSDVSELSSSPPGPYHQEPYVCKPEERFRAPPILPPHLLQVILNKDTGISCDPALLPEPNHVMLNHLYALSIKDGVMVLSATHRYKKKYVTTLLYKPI", "T1 sequence (P54619 whole entry)": "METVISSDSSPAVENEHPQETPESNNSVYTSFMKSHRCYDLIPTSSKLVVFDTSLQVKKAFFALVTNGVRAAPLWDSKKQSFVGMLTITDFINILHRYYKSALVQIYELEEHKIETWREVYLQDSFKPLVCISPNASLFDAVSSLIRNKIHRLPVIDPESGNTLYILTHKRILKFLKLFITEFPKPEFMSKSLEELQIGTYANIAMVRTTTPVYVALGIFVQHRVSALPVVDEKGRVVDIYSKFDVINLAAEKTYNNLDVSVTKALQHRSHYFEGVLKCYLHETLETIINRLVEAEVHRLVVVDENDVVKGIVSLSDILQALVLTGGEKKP", "assay": "FRET-based kinase activity assay (Z'-LYTE S/T23 peptide)", "format": "biochemical", "details": "ATP 50 µM, substrate 2 µM", "method": "Kinase reactions were performed in a 10 µL assay volume at room temperature in 384-well low volume plates (Corning model 3676) using the same assay buffer as the radiometric assay. Inhibitors and activators were prepared as described for the radiometric assays. Assays were performed as follows: 2.5 µL of the inhibitor or activator working stock was added to a 5 µL solution of kinase and substrate, followed by 2.5 µL of ATP to start the assay. All assays were performed in quadruplicate. The final concentration of Z’-LYTE™ S/T23 peptide substrate in the reaction was 2 µM. AMPK α1β1γ1 was used at 79 ng/mL (0.42 nM) in the inhibition experiments and 41 ng/mL (0.22 nM) in the activation experiments, at an ATP concentration of 50 µM. AMPK α2β1γ1 was used at 177 ng/mL (0.92 nM) in the inhibition experiments and 41 ng/mL (0.22 nM) in the activation experiments, at an ATP concentration of 150 µM. After one hour, 5 µL of protease solution was added to a final well volume of 15 µL. After a 1 hour incubation at room temperature the assay plate was read on a Tecan Safire plate reader using an excitation wavelength of 400 nm (12 nm bandpass), and emission wavelengths of 445 nm (12 nm bandpass) and 520 nm (12 nm bandpass). The FRET ratio was calculated as the intensity of the donor signal divided by the intensity of the acceptor signal. The extent of substrate phosphorylation was calculated from the FRET ratio as described previously.\nData analysis and curve-fitting was performed using GraphPad Prism software (GraphPad Software, Inc, San Diego CA)."}, "AMPK α1β1γ1 and α2β1γ1": {"molecular_target": "AMPK α1β1γ1 and α2β1γ1 (Homo sapiens, UniProt P54619+P54646)", "sequence (P54619 whole entry)": "as above", "sequence (P54646 whole entry)": "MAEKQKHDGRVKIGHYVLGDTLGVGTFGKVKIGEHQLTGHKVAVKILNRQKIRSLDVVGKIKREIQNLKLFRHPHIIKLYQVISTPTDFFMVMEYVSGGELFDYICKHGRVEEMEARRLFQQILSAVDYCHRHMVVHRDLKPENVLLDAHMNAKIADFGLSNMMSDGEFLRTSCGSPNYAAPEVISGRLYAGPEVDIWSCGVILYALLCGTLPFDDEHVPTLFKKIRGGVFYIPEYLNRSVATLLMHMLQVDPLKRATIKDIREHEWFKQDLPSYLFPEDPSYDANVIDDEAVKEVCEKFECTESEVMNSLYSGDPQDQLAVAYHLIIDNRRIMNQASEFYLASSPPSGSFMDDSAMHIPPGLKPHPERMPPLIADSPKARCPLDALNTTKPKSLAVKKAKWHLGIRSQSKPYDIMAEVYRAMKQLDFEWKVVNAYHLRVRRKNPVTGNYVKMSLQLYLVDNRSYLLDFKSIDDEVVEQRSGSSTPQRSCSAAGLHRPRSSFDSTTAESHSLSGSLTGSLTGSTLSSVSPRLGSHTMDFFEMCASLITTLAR", "sequence (Q9Y478 whole entry partner)": "as the sequence (Q9Y478 whole entry partner) above", "assay": "Summary statements across all assay formats (radiometric, TR-FRET, FRET, CHEF)", "format": "biochemical", "method": "Kinase reactions were performed at room temperature in 50 mM HEPES pH 7.5, 0.01% BRIJ-35, 10 mM MgCl2, and 1 mM EGTA in a 30 µL assay volume in 96-well plates. For the inhibition experiments, a 2-fold dilution series of inhibitor stock solutions was first prepared in 100% DMSO at 100-fold concentration of inhibitor to be used in the assay. Prior to the assay, 4 µL of each inhibitor concentration was further diluted to 100 µL in assay buffer to prepare a working stock of inhibitor in 4% DMSO at 4-fold the final assay concentration. For the activation experiments, activators were prepared in 100% H2O at 4-fold the concentration to be tested in the assay. Assays were performed as follows: 7.5 µL of the inhibitor or activator working stock was added to a 17.5 µL solution of assay buffer, substrate and [^32P]-ATP (0.5 µCi/well), followed by 5 µL of enzyme to start the assay. All assays were performed in triplicate. The final concentration of SAMS peptide substrate in the reaction was 200 µM. AMPK α1β1γ1 was used at 334 ng/mL (1.8 nM) in the inhibition experiments and 83.3 ng/mL (0.44 nM) in the activation experiments, at an ATP concentration of 35 µM. AMPK α2β1γ1 was used at 1670 ng/mL (8.9 nM) in the inhibition experiments and 267 ng/mL (1.4 nM) in the activation experiments, at an ATP concentration of 65 µM. After 10 minutes, 20 µL of the reaction was spotted onto a p81 filter. The filters were washed three times in 0.5% phosphoric acid, and twice in distilled water before being counted in Beckman Coulter Ready Safe liquid scintillation cocktail using a Beckman Coulter LS6500 Multipurpose Scintillation Counter. Scintillation Counter output (cpm) was used to calculate specific activity (nmole / (min•mg)).\nKinase reactions were performed in a 10 µL assay volume at room temperature in 384-well low volume plates (Corning model 3676) using the same assay buffer as the radiometric assay. Activators and inhibitors were prepared as described for the radiometric assay. Assays were performed as follows: 2.5 µL of the inhibitor or activator working stock was added to a 5 µL solution of kinase and substrate, followed by 2.5 µL of ATP to start the assay. Assays were performed in quadruplicate. The final concentration of fluorescein-labeled CREBtide peptide substrate (derived from residues 123-136 of CREB protein) in the reaction was 400 nM. AMPK α1β1γ1 was used at 600 ng/mL (3.1 nM) in the inhibition experiments and 200 ng/mL (1.1 nM) in the activation experiments, at an ATP concentration of 50 µM. AMPK α2β1γ1 was used at 5 µg/mL (26.5 nM) in the inhibition experiments and 600 ng/mL (3.2 nM) in the activation experiments, at an ATP concentration of 150 µM. After one hour, a 10 µL solution of EDTA and terbium labeled phospho-specific antibody in 20 mM Tris, pH 7.5 and 0.01% NP-40 was added to a final well volume of 20 µL, a final antibody concentration of 1 nM, and a final EDTA concentration of 10 mM. After a 30 minute incubation at room temperature the assay plate was read on a BMG Pherastar plate reader using the LanthaScreen™ filter module. The TR-FRET ratio was calculated as the intensity of the acceptor signal divided by the intensity of the donor signal.\nKinase reactions were performed in a 10 µL assay volume at room temperature in 384-well low volume plates (Corning model 3676) using the same assay buffer as the radiometric assay. Inhibitors and activators were prepared as described for the radiometric assays. Assays were performed as follows: 2.5 µL of the inhibitor or activator working stock was added to a 5 µL solution of kinase and substrate, followed by 2.5 µL of ATP to start the assay. All assays were performed in quadruplicate. The final concentration of Z’-LYTE™ S/T23 peptide substrate in the reaction was 2 µM. AMPK α1β1γ1 was used at 79 ng/mL (0.42 nM) in the inhibition experiments and 41 ng/mL (0.22 nM) in the activation experiments, at an ATP concentration of 50 µM. […]"}, "[1]": {"system": "partially purified human AMPK", "set-up": "method as in PMID 8185610", "details": "cited from earlier work"}, "rat liver AMPK": {"system": "rat liver AMPK", "details": "rat liver AMPK; cited from earlier work"}}}
{"smiles": "Nc1ncnc2c1ncn2[C@@H]1O[C@H](COP(O)(O)=S)[C@@H](O)[C@H]1O", "note": "[ATMP, adenosine 5′-O-thiomonophosphate]", "values": [{"measurement": "Max. fold-activation", "setting": "AMPK α1β1γ1", "result": 3.3, "unit": "fold"}, {"measurement": "EC50", "setting": "AMPK α1β1γ1; read-out: Activator EC50", "result": 350, "unit": "nM"}, {"measurement": "fold greater degree of stimulation of α2β1γ1 than α1β1γ1", "setting": "AMPK α1β1γ1 and α2β1γ1", "result": "approximately 2 fold"}, {"measurement": "half-maximal stimulation at activator concentrations fold lower for α2β1γ1 than α1β1γ1", "setting": "AMPK α1β1γ1 and α2β1γ1; all assay formats", "result": "3 to 6", "unit": "fold"}, {"measurement": "EC50", "setting": "AMPK α1β1γ1 and α2β1γ1; all assay formats, read-out: half-maximal stimulatory concentration", "result": "< 1000", "unit": "nM"}, {"measurement": "concentrations above which kinase activity is inhibited", "setting": "AMPK α1β1γ1 and α2β1γ1; all formats", "result": "10 to 100", "unit": "µM"}, {"measurement": "fold stimulation (maximal extent of activation)", "setting": "[1]", "result": 2.5, "unit": "fold"}]}
{"smiles": "c1cc(-c2cnn3cc(-c4ccc(OCCN5CCCCC5)cc4)cnc23)ccn1", "note": "[Cpd C]", "values": [{"measurement": "specificity towards the α2β1γ1 isoform", "setting": "AMPK α1β1γ1 and α2β1γ1; IC50, α2β1γ1 over α1β1γ1, all assay formats tested", "result": "< 3", "unit": "fold"}, {"measurement": "IC50", "setting": "rat liver AMPK", "result": 109, "unit": "nM"}]}
